The target of assay [1] is T1, human Nav1.7 channels stably expressed in HEK 293 cells (Homo sapiens, UniProt Q15858).
T1 construct: expressed in transfected cells
As to the kind of experiment: PatchXpress 7000 automated patch-clamp, sodium current. It is filed as cell-based. The following applies: 22° C. The essentials: (§1)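 IC50 values came from Hill-equation fits of rundown-corrected inhibition. PatchXpress recordings at 22° C held cells 20 mV negative to V0.5 inact and applied 10 Hz trains of 30 ms steps to −20 mV (Nav1.7) or an 8000 ms prepulse 7 mV positive to V0.5 inact. […]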
In general terms: The patch-clamp technique gives a direct electrical read-out from membranes.

The target of assay [2] is T2, human Nav1.5 channels stably expressed in HEK 293 cells (Homo sapiens, UniProt Q14524).
T2 construct: expressed in transfected cells
T2 sequence (Q14524 whole entry): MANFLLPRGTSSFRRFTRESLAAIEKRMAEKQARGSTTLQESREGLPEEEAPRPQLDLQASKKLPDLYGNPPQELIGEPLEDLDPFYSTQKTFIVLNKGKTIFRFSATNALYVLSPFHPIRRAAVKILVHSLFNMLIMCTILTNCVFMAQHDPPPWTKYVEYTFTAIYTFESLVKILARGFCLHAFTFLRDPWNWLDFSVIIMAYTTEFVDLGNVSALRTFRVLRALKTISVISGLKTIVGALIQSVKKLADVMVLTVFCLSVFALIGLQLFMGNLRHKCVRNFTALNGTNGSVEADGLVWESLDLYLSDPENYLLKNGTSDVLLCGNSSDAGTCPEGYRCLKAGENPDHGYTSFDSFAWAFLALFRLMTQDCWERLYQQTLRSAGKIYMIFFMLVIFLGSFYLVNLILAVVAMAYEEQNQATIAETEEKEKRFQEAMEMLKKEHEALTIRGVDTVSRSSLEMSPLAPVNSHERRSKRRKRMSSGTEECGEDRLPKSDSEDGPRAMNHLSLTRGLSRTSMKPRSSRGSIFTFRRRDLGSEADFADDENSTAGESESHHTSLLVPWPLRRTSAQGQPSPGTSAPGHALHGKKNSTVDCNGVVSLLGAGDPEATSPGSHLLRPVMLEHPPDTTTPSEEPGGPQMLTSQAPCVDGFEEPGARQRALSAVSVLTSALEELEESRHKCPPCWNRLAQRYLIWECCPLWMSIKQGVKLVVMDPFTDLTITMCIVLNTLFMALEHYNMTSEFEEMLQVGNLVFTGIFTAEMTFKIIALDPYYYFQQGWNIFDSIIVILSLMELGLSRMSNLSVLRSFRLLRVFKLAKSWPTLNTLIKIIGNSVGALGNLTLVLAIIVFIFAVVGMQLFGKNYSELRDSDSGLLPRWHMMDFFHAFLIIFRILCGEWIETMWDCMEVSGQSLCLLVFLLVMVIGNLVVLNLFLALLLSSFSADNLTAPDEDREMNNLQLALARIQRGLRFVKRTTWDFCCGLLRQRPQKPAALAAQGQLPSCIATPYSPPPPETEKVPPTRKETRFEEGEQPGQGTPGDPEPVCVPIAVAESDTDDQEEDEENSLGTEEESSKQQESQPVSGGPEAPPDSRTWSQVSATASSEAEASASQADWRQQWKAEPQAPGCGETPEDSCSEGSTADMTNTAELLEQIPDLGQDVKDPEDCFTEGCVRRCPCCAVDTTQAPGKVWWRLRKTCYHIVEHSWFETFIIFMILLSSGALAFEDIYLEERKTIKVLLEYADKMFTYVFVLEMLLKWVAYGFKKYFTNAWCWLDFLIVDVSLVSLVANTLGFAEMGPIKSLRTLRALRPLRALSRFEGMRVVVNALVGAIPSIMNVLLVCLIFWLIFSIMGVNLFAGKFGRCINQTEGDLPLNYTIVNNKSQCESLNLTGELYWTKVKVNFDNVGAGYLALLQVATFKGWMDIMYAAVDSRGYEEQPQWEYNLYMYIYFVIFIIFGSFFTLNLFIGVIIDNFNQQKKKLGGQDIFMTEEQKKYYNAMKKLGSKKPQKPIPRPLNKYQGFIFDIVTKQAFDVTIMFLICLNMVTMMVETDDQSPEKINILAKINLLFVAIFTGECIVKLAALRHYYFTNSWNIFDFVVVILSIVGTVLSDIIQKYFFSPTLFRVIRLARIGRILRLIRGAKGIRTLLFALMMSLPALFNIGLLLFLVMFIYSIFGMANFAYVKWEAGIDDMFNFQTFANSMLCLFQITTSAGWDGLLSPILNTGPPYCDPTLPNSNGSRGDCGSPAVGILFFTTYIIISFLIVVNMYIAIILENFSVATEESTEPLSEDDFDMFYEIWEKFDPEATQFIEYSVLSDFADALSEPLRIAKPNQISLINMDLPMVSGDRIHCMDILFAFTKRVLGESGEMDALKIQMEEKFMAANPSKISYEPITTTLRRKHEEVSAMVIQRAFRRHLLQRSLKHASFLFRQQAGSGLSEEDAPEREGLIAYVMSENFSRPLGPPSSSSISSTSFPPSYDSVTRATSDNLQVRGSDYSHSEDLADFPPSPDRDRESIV
The description is as above. The conditions noted are these: selectivity over Nav1.5. It is filed as cell-based. In short, it runs like this:
as §1

The mark [3] stands for this setting: read-out: potency for the Nav 1.7 sodium ion channel (as measured by PatchXpress).

Where two headings read alike, the source gives them in different places.

T1 sequence (Q15858 whole entry): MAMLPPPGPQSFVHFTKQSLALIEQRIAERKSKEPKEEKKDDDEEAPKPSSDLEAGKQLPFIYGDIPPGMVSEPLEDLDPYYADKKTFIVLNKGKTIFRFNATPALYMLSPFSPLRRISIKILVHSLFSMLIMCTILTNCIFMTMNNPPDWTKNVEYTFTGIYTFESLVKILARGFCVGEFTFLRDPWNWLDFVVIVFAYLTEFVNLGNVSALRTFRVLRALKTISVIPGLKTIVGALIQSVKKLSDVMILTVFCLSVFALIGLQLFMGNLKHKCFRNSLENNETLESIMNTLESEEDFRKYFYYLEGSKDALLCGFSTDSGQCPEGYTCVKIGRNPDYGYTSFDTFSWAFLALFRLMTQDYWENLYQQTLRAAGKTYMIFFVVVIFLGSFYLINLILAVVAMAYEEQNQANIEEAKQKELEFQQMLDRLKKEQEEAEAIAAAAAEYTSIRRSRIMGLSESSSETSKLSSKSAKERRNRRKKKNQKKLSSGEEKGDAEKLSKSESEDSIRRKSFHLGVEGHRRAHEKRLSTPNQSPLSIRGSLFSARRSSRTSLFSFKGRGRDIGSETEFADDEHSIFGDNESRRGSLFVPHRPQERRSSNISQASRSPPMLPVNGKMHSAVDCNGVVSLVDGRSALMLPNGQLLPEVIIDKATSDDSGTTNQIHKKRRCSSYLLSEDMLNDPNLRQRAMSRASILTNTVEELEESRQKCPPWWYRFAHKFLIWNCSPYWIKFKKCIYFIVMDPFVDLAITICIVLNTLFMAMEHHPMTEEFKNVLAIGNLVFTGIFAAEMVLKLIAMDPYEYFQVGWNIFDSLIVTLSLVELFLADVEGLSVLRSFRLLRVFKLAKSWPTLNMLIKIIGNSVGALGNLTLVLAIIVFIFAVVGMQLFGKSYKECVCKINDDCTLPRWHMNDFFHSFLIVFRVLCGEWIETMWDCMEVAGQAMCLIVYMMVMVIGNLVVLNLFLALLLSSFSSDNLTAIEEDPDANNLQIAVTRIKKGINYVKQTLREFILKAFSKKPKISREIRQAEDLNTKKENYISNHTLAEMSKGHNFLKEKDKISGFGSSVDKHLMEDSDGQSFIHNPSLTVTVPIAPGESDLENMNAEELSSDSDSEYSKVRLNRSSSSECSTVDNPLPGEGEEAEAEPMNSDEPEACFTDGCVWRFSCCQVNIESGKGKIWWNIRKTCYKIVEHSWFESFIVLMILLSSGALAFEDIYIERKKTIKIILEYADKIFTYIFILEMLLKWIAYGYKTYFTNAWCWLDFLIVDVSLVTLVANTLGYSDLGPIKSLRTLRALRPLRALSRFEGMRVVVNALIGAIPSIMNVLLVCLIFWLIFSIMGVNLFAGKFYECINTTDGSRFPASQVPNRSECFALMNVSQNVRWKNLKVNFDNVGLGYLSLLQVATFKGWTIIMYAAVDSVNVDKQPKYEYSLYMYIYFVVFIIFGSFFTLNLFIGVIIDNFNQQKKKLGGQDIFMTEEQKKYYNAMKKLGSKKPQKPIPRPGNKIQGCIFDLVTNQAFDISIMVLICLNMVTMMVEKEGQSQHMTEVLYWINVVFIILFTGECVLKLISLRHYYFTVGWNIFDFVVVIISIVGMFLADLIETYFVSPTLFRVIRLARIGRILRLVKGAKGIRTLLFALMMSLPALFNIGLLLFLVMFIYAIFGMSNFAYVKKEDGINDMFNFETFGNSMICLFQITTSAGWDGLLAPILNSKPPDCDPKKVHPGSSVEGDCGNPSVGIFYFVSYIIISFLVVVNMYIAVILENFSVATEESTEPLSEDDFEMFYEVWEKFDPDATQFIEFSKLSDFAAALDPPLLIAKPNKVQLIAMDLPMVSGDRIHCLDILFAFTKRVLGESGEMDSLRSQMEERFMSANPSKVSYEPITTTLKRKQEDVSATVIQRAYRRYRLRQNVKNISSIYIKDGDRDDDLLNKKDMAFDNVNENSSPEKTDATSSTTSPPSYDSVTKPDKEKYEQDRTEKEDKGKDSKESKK

As to `C[C@H](c1ccccc1C#CCNS(C)(=O)=O)n1c(=O)oc2cc(S(=O)(=O)Nc3ncns3)c(Cl)cc21` [Compound 36-6, 5-chloro-3-[(1R)-1-(2-{3-[(methylsulfonyl)amino]prop-1-yn-1-yl}phenyl)ethyl]-2-oxo-N-1,2,4-thiadiazol-5-yl-2,3-dihydro-1,3-benzoxazole-6-sulfonamide], the IC50 in assay [1] (setting [3]) stood at 121 nM. Besides, the “ratio of Nav 1.5:Nav 1.7 potency, determined by PatchXpress measurement” value (“ratio of Nav 1.5:Nav 1.7 potency” for short) in assay [2] is recorded as 175.
In the same order, the values of `O=c1oc2cc(S(=O)(=O)Nc3nccs3)c(F)cc2n1Cc1cccc(Br)c1` [Compound 43-6, 3-(3-bromobenzyl)-5-fluoro-2-oxo-N-1,3-thiazol-2-yl-2,3-dihydro-1,3-benzoxazole-6-sulfonamide] are 162 nM and 80.
`C[C@H](c1ccccc1C1=CCNCC1)n1c(=O)oc2cc(S(=O)(=O)Nc3ncns3)c(Cl)cc21.Cl` [Compound 34-6, (R)-5-chloro-2-oxo-3-(1-(2-(1,2,3,6-tetrahydropyridin-4-yl)phenyl)ethyl)-N-(1,2,4-thiadiazol-5-yl)-2,3-dihydrobenzo[d]oxazole-6-sulfonamide hydrochloride] displayed an IC50 in assay [1] (potency for the Nav 1.7 sodium ion channel (as measured by PatchXpress)) of 25 nM. In assay [2], the “ratio of Nav 1.5:Nav 1.7 potency” value was determined as 1200.
On to `C[C@H](c1ccccc1C#CCN1CCS(=O)(=O)CC1)n1c(=O)oc2cc(S(=O)(=O)Nc3ncns3)c(F)cc21` [Compound 17-5, 3-[(1R)-1-{2-[3-(1,1-dioxidothiomorpholin-4-yl)prop-1-yn-1-yl]phenyl}ethyl)-5-fluoro-2-oxo-N-1,2,4-thiadiazol-5-yl-2,3-dihydro-1,3-benzoxazole-6-sulfonamide], for which the IC50 in assay [1] (setting [3]) amounted to 122 nM. Besides, the “ratio of Nav 1.5:Nav 1.7 potency” value in assay [2] is on record as 246.
As for `O=c1oc2cc(S(=O)(=O)Nc3ncns3)c(F)cc2n1Cc1cccc2c1CC(NCc1ccccc1)CC2` (racemic) [Compound 23-23, (+/−)-3-{[7-(benzylamino)-5,6,7,8-tetrahydronaphthalen-1-yl]methyl}-5-fluoro-2-oxo-N-1,2,4-thiadiazol-5-yl-2,3-dihydro-1,3-benzoxazole-6-sulfonamide], the IC50 in assay [1] (setting [3]) worked out at 24 nM. In assay [2], the “ratio of Nav 1.5:Nav 1.7 potency” value was 502.
As for `CC1(C)CCC(n2c(=O)oc3cc(S(=O)(=O)Nc4ncns4)c(F)cc32)c2ccccc21` (stereo not shown) [Compound 39-12, 3-(4,4-dimethyl-1,2,3,4-tetrahydronaphthalen-1-yl)-5-fluoro-2-oxo-N-1,2,4-thiadiazol-5-yl-2,3-dihydro-1,3-benzoxazole-6-sulfonamide], the IC50 in assay [1] (setting [3]) was 159 nM. In assay [2], the “ratio of Nav 1.5:Nav 1.7 potency” value is given as 38.
In the same order, the values of `C[C@H](c1cccc2cncn12)n1c(=O)oc2cc(S(=O)(=O)Nc3nccs3)c(F)cc21` [Compound 43-18, 5-fluoro-3-[(1R)-1-imidazo[1,5-a]pyridin-5-ylethyl]-2-oxo-N-1,3-thiazol-2-yl-2,3-dihydro-1,3-benzoxazole-6-sulfonamide] are 215 nM and 139.
As for `C[C@H](c1cccc2cncn12)n1c(=O)oc2cc(S(=O)(=O)Nc3ncns3)c(F)cc21` [Compound 15-3, (R)-5-Fluoro-3-(1-(imidazo[1,5-a]pyridin-5-yl)ethyl)-2-oxo-N-(1,2,4-thiadiazol-5-yl)-2,3-dihydrobenzo[d]oxazole-6-sulfonamide], in assay [1] (setting [3]), the IC50 turned out to be 134 nM. In assay [2], the “ratio of Nav 1.5:Nav 1.7 potency” value was 122.
In the same order, the values of `O=c1oc2cc(S(=O)(=O)Nc3nccs3)c(F)cc2n1C1CCCc2ccncc21` (stereo not shown) [Compound 43-3, 5-fluoro-2-oxo-3-(5,6,7,8-tetrahydroisoquinolin-8-yl)-N-1,3-thiazol-2-yl-2,3-dihydro-1,3-benzoxazole-6-sulfonamide] are 550 nM and 91.
Regarding `C[C@@H](c1ccccc1CCCN)n1c(=O)oc2cc(S(=O)(=O)Nc3ncns3)c(F)cc21` [Compound 33-8], the IC50 in assay [1] (setting [3]) stood at 168 nM. Further, the “ratio of Nav 1.5:Nav 1.7 potency” value in assay [2] is given as 179.
In the same order, the values of `C[C@H](c1ccccc1C#CC1(O)CCCC1)n1c(=O)oc2cc(S(=O)(=O)Nc3ncns3)c(F)cc21` [Compound 17-3, 5-fluoro-3-[(1R)-1-{2-[(1-hydroxycyclopentyl)ethynyl]phenyl}ethyl]-2-oxo-N-1,2,4-thiadiazol-5-yl-2,3-dihydro-1,3-benzoxazole-6-sulfonamide] are 172 nM and 97.
Take `C[C@H](c1ccccc1)n1c(=O)oc2cc(S(=O)(=O)Nc3nccs3)ccc21` [Compound 41-4, (R)-2-oxo-3-(1-phenylethyl)-N-(thiazol-2-yl)-2,3-dihydrobenzo[d]oxazole-6-sulfonamide]: the IC50 in assay [1] (setting [3]) came out at 161 nM. Also, in assay [2], the “ratio of Nav 1.5:Nav 1.7 potency” value amounted to 187.
In the same order, the values of `C[C@H](c1ccccc1C#C[C@@H]1CCCN1)n1c(=O)oc2cc(S(=O)(=O)Nc3ncns3)c(F)cc21` [Compound 17-17, 5-fluoro-2-oxo-3-[(1R)-1-{2-[(2S)-pyrrolidin-2-ylethynyl]phenyl}ethyl]-N-1,2,4-thiadiazol-5-yl-2,3-dihydro-1,3-benzoxazole-6-sulfonamide] are 29 nM and 1034.
In the same order, the values of `C[C@H](c1ccccc1C#CC1(N)CCCCC1)n1c(=O)oc2cc(S(=O)(=O)Nc3ncns3)c(F)cc21` [Compound 17-23, 3-[(1R)-1-{2-[(1-aminocyclohexyl)ethynyl]phenyl}ethyl]-5-fluoro-2-oxo-N-1,2,4-thiadiazol-5-yl-2,3-dihydro-1,3-benzoxazole-6-sulfonamide] are 12 nM and 2477.
In the same order, the values of `Cl.O=c1oc2cc(S(=O)(=O)Nc3ncns3)c(F)cc2n1Cc1cccc2c1CNCC2F` (stereo not shown) [Compound 24-9, 5-fluoro-3-((4-fluoro-1,2,3,4-tetrahydroisoquinolin-8-yl)methyl)-2-oxo-N-(1,2,4-thiadiazol-5-yl)-2,3-dihydrobenzo[d]oxazole-6-sulfonamide hydrochloride] are 183 nM and 704.
With `C[C@H](c1cccc2c1CN(S(C)(=O)=O)CC2)n1c(=O)oc2cc(S(=O)(=O)Nc3ncns3)c(F)cc21` [Compound 36-5, 5-fluoro-3-{(1R)-1-[2-(methylsulfonyl)-1,2,3,4-tetrahydroisoquinolin-8-yl]ethyl}-2-oxo-N-1,2,4-thiadiazol-5-yl-2,3-dihydro-1,3-benzoxazole-6-sulfonamide], the IC50 in assay [1] (setting [3]) is 155 nM. In assay [2], the “ratio of Nav 1.5:Nav 1.7 potency” value is reported as 35.
`CNCC#Cc1ccccc1[C@@H](C)n1c(=O)oc2cc(S(=O)(=O)Nc3ncns3)c(F)cc21` [Compound 17-11, 5-fluoro-3-[(1R)-1-{2-[3-(methylamino)prop-1-yn-1-yl]phenyl}ethyl]-2-oxo-N-1,2,4-thiadiazol-5-yl-2,3-dihydro-1,3-benzoxazole-6-sulfonamide]: the IC50 in assay [1] (setting [3]) is 51 nM. The “ratio of Nav 1.5:Nav 1.7 potency” value in assay [2] is 589.
In the same order, the values of `C[C@H](c1ccccc1C#C[C@@H](C)O)n1c(=O)oc2cc(S(=O)(=O)Nc3ncns3)c(F)cc21` [Compound 17-7, 5-fluoro-3-[(1R)-1-{2-[(3R)-3-hydroxybut-1-yn-1-yl]phenyl}ethyl]-2-oxo-N-1,2,4-thiadiazol-5-yl-2,3-dihydro-1,3-benzoxazole-6-sulfonamide] are 78 nM and 1257.
Turning to `C[C@H](c1cccc2ccncc12)n1c(=O)oc2cc(S(=O)(=O)Nc3ncns3)ccc21` [Compound 14-7, (R)-3-(1-(isoquinolin-8-yl)ethyl)-2-oxo-N-(1,2,4-thiadiazol-5-yl)-2,3-dihydrobenzo[d]oxazole-6-sulfonamide], in assay [1] (setting [3]), the IC50 was determined as 40 nM. Also, the “ratio of Nav 1.5:Nav 1.7 potency” value in assay [2] turned out to be 749.
In the same order, the values of `CN(C)C1CCc2cccc(Cn3c(=O)oc4cc(S(=O)(=O)Nc5ncns5)c(F)cc43)c2C1` (racemic) [Compound 23-15, (+/−)-3-{[7-(dimethylamino)-5,6,7,8-tetrahydronaphthalen-1-yl]methyl}-5-fluoro-2-oxo-N-1,2,4-thiadiazol-5-yl-2,3-dihydro-1,3-benzoxazole-6-sulfonamide] are 72 nM and 207.
In the case of `C[C@H](c1ccccc1C1=CCN(S(C)(=O)=O)CC1)n1c(=O)oc2cc(S(=O)(=O)Nc3ncns3)c(Cl)cc21` [Compound 36-1, (R)-5-chloro-3-(1-(2-(1-(methylsulfonyl)-1,2,3,6-tetrahydropyridin-4-yl)phenyl)ethyl)-2-oxo-N-(1,2,4-thiadiazol-5-yl)-2,3-dihydrobenzo[d]oxazole-6-sulfonamide], in assay [1] (setting [3]), the IC50 came to 527 nM. In addition, the “ratio of Nav 1.5:Nav 1.7 potency” value in assay [2] amounted to 54.
The like results for `Cc1cccc2c1CCCC2n1c(=O)oc2cc(S(=O)(=O)Nc3ncns3)c(F)cc21` (stereo not shown) [Compound 39-5, 5-fluoro-3-(5-methyl-1,2,3,4-tetrahydronaphthalen-1-yl)-2-oxo-N-1,2,4-thiadiazol-5-yl-2,3-dihydro-1,3-benzoxazole-6-sulfonamide] were, in that order, 261 nM and 14.
Regarding `C[C@@H](c1cccc2cncn12)n1c(=O)oc2cc(S(=O)(=O)Nc3nccs3)c(F)cc21` [Compound 43-17, 5-fluoro-3-[(1S)-1-imidazo[1,5-a]pyridin-5-ylethyl]-2-oxo-N-1,3-thiazol-2-yl-2,3-dihydro-1,3-benzoxazole-6-sulfonamide], the IC50 in assay [1] (setting [3]) amounted to 621 nM. Besides, the “ratio of Nav 1.5:Nav 1.7 potency” value in assay [2] was 48.

These data come from patent US9273040B2 (Merck Sharp & Dohme Corp., priority 2011, dated 2016).
